Reference: patent US20230105982A1, “INSULIN-INCRETIN CONJUGATES” (Merck Sharp & Dohme Corp., priority 2021, published 2023)

Assays:
Assay type in all cases: cell-based
[1] = biological target: T1, human GCGR (Homo sapiens, UniProt P47871); test: cAMP activity assay, cells expressing human GCGR; settings: for GCGR/GLP1R ratio: ratio of hGCGR EC50 to hGLP1R EC50, Table 5
T1 construct: expressed in transfected cells
Experimental: (§1) Activity of the incretin peptides or the conjugates at the Glucagon receptor (GCGR) and GLP-1 receptor (GLP1R) may be measured in a cAMP activity assay as follows.
(§2) Peptides are dissolved in 100% DMSO and serially diluted to generate 10 point titrations. The peptide solutions are then transferred into 384-well assay plates (150 nL/well). Assay ready frozen cells expressing human GLP1R or human GCGR are suspended in growth media consisting of DMEM medium (GIBCO), 10% FBS (GIBCO), 1×NEAA(GIBCO), 1×P/S (GIBCO), 10 μg/mL Blasticidin (GIBCO) and 200 μg/mL Hygromycin (GIBCO). […] The cell suspensions (15 μL) are then added to the assay plates containing the peptide solutions (30,000 cells/well for human GCGR; 10,000 cells/well for human GLP1R). The cells are incubated for one hour at room temperature in the dark.
(§3) Production of cAMP may be determined using HitHunter™ cAMPXS kits (DiscoverX) following the manufacturer's protocol. The plates are incubated for overnight at room temperature in the dark. Luminescence may be measured using an EnVision Multilabel plate reader (Perkin Elmer). Native GLP-1 and Glucagon (Bachem) may be used as control peptides. EC50 values may be calculated using uses a 4 parameter logistic fit based on the Levenberg-Marquardt algorithm.

[2] = biological target: human GLP1R (Homo sapiens, UniProt P43220); test: cAMP activity assay, cells expressing human GLP1R; settings: hGLP1R EC50
Experimental: as §1, §2, §3

[3] = test system: minipig IR; test: Insulin Receptor Phosphorylation (pAkt) Assay, CHO cells overexpressing minipig IR; settings: Table 7, read-out: Insulin Receptor pAK Assay EC50 Minipig

T1 sequence (P47871 26-477): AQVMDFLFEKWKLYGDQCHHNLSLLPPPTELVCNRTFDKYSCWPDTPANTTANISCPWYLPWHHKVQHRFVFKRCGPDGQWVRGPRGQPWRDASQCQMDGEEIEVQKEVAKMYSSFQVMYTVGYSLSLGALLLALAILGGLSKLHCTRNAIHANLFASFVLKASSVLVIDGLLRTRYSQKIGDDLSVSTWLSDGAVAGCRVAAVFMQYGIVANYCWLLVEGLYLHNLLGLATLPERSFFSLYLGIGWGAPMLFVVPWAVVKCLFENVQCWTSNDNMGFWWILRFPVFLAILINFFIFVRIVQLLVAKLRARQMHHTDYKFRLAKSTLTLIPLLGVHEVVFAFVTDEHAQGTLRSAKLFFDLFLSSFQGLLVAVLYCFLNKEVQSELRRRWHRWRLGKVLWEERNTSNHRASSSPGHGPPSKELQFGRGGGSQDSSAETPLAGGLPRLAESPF
Chain of human GLP1R (P43220 24-463): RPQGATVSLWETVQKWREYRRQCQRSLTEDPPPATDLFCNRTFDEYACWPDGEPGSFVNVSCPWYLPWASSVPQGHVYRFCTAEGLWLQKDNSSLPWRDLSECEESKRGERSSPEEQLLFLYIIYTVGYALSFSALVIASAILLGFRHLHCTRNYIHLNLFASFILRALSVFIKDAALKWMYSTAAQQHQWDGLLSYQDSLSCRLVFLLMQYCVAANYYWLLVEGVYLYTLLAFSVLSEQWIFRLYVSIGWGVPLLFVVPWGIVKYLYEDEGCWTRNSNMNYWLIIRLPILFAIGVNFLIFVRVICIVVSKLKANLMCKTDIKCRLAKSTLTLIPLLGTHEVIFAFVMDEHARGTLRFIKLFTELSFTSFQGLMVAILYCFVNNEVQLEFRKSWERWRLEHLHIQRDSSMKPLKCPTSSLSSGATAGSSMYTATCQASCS

| EC50 [3] | Compound | GCGR/GLP1R ratio [1] | EC50 ([1]; hGCGR_EC50) | EC50 [2] |
| --- | --- | --- | --- | --- |
|  | CCCCCCCCCCCCCCCC(=O)N[C@@H](CCC(=O)N[C@@H](CCC(=O)NCCCC[C@H](NC(=O)[C@H](CC(=O)O)NC(=O)[C@H](CO)NC(=O)[C@@H](NC(=O)[C@H](Cc1ccccc1)NC(=O)[C@@H](NC(=O)CNC(=O)[C@H](CCC(N)=O)NC(=O)[C@@H](CO)NC(=O)[C@@H](N)Cc1c[nH]cn1)[C@@H](C)O)[C@@H](C)O)C(=O)N[C@@H](CO)C(=O)N[C@@H](CCCCN)C(=O)N[C@@H](Cc1ccc(O)cc1)C(=O)N[C@@H](CC(C)C)C(=O)N[C@@H](CC(=O)O)C(=O)NC(C)(C)C(=O)N[C@@H](CCCNC(=N)N)C(=O)N[C@@H](C)C(=O)N[C@@H](C)C(=O)N[C@@H](CCC(N)=O)C(=O)N[C@@H](CC(=O)O)C(=O)N[C@@H](Cc1ccccc1)C(=O)N[C@H](C(=O)N[C@@H](CCCCN=[N+]=[N-])C(=O)N[C@@H](Cc1c[nH]c2ccccc12)C(=O)N[C@@H](CC(C)C)C(=O)N[C@@H](CC(C)C)C(=O)N[C@@H](CC(=O)O)C(=O)N[C@H](C(N)=O)[C@@H](C)O)C(C)C)C(=O)O)C(=O)O [PEP7] | 0.2 |  |  |
|  | CCCCCCCCCCCCCCCC(=O)N[C@@H](CCC(=O)N[C@@H](CCC(=O)NCCCC[C@H](NC(=O)[C@H](CC(=O)O)NC(=O)[C@H](CO)NC(=O)[C@@H](NC(=O)[C@H](Cc1ccccc1)NC(=O)[C@@H](NC(=O)CNC(=O)[C@H](CCC(N)=O)NC(=O)[C@@H](CO)NC(=O)[C@@H](N)Cc1c[nH]cn1)[C@@H](C)O)[C@@H](C)O)C(=O)N[C@@H](CO)C(=O)N[C@@H](CCCCN)C(=O)N[C@@H](Cc1ccc(O)cc1)C(=O)N[C@@H](CC(C)C)C(=O)N[C@@H](CC(=O)O)C(=O)N[C@@H](CCC(=O)O)C(=O)N[C@@H](CCCNC(=N)N)C(=O)N[C@@H](C)C(=O)N[C@@H](C)C(=O)N[C@@H](CCC(N)=O)C(=O)N[C@@H](CC(=O)O)C(=O)N[C@@H](Cc1ccccc1)C(=O)N[C@H](C(=O)N[C@@H](CCCCNC(=O)COCCOCCNC(=O)COCCOCCNC(=O)CCCCN=[N+]=[N-])C(=O)N[C@@H](Cc1c[nH]c2ccccc12)C(=O)N[C@@H](CC(C)C)C(=O)N[C@@H](CC(C)C)C(=O)N[C@@H](CC(=O)O)C(=O)N[C@H](C(N)=O)[C@@H](C)O)C(C)C)C(=O)O)C(=O)O [PEP15] | 0.7 | 0.02 nM | 0.03 nM |
| 0.5 nM | Insulin levemir [IL] |  |  |  |
